Publication PMC8338929, “Acetylation turns leucine into a drug by membrane transporter switching” (Scientific Reports, 2021)

Assays:
[1] = N-acetyl-leucine metabolism in pooled human liver S9 fraction (LC-MS); assay type: in vitro ADME; details: 1 µM initial concentration, 0-60 min
Procedure: (§2) V0 = Vmax. [S]/Km + [S], where V0 is initial velocity, [S] is substrate concentration, Vmax is maximum velocity and Km is substrate concentration at half Vmax. All fitting was performed using GraphPad Prism 8.4 software (GraphPad Software Inc). No weighting scheme was applied.

[2] = N-acetyl-leucine metabolism in pooled mouse liver S9 fraction (LC-MS); assay type: in vitro ADME; details: 1 µM initial concentration, 0-60 min
Procedure: as §2

LAT1 = details: read-out: Km LAT1; quoted in discussion, no reference given; cited from earlier work
human MCT1 (SLC16A1) [3] = target: T1, human MCT1 (SLC16A1) (Homo sapiens, UniProt P53985); experiment: Inhibition of MCT1 uptake of probe substrate 2-thiophene glyoxylate in MDCK-II cells; assay type: cell-based
T1 construct: host or cells: MDCK-II
T1 sequence (P53985 1-500): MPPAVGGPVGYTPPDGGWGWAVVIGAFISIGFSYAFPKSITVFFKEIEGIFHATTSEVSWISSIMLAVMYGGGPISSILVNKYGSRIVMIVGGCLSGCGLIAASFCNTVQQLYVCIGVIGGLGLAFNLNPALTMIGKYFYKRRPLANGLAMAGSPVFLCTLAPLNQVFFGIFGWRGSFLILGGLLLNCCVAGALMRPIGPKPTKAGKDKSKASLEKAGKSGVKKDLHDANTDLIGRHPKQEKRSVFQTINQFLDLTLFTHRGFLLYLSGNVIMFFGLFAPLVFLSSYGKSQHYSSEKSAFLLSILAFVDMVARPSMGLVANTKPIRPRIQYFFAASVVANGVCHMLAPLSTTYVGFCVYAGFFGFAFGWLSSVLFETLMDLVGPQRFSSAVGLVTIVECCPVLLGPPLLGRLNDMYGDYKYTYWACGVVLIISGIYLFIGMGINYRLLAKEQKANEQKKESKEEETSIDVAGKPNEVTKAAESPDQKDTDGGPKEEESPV
Procedure: (§1) Transport studies with human PepT1 (SLC15A1), LAT1 (SLC7A5) and MCT1 (SLC16A1) were conducted in MDCK-II cells expressing the human transporter or control cells expressing a vector with Green Fluorescence Protein. Cells were transfected using a proprietary, transient transfection system (OPTI-EXPRESSION Technology, BioIVT). The results from the control cells were used to correct for substrate permeation by routes other than the transporter being investigated in the study. […] Specifically, Net Transporter Mediated Substrate Uptake (pmol/min/cm^2) = (Cellular accumulation in the presence of the transporter) − (Mean cellular accumulation in the absence of the transporter). MDCK-II cells were maintained in DMEM with low glucose and 10% FBS. Cells were used at passages up to 40 were seeded at 60,000 ± 10,000 cells/well on 96-well plates approximately 24 h before transfection, and transport assays were performed approximately 48 h after transfection. Transport studies in MDCK-II cells were conducted in 96-well insert plates with permeable membrane (0.4 µm) and receiver tray (Millipore MultiScreen Filter 96-well).
Transport studies with PepT1 were conducted in 96-well cell culture plate with wells containing a monolayer of MDCK-II cells grown on a permeable support and a corresponding 96-well receiver tray. Cell plates are maintained at 37 °C in 5% CO2 atmosphere prior to initiation of the transport experiment. Pre-incubation was conducted in HBSS, pH 7.4. The transport experiments were conducted in HBSS with Bis–Tris, pH 5.5, without phenol red. Both pre-incubation and incubation were conducted at 37 °C. All final assay solutions of probe substrate, reference inhibitor or test article contain 0.5% (v/v) DMSO (vehicle control). The culture plate insert […] was washed with warm HBSS three times and then blotted dry. The culture plate wells […] were washed with warm HBSS three times. 100 µL of 37 °C HBSS pH 7.4 pre-incubation buffer to the apical compartment as follows: for the probe substrate transport assay, the HBSS contains vehicle; for the reference inhibition assay, the HBSS contains the reference inhibitor at the required concentration; for the test article assays, the HBSS in each well contains test compound at the specified concentration. The plates were incubated at 37 °C with orbital shaking at approximately 60 rpm for the pre-incubation (30 min), aspirated and then 100 µL of the experimental buffer was added. […] Then a 30-µL sample was taken and mixed with 200 µL of scintillation fluid and scintillation counted (1450 Microbeta, Perkin-Elmer). […]

human MCT1 (SLC16A1) [4] = target: T1, human MCT1 (SLC16A1); experiment: MCT1-mediated cellular uptake in transfected MDCK-II cells; assay type: cell-based; details: 1 min, room temperature, Michaelis-Menten fit
Procedure: as §1
Transport studies with PepT1 were conducted in 96-well cell culture plate with wells containing a monolayer of MDCK-II cells grown on a permeable support and a corresponding 96-well receiver tray. Cell plates are maintained at 37 °C in 5% CO2 atmosphere prior to initiation of the transport experiment. Pre-incubation was conducted in HBSS, pH 7.4. The transport experiments were conducted in HBSS with Bis–Tris, pH 5.5, without phenol red. Both pre-incubation and incubation were conducted at 37 °C. All final assay solutions of probe substrate, reference inhibitor or test article contain 0.5% (v/v) DMSO (vehicle control). The culture plate insert […] was washed with warm HBSS three times and then blotted dry. The culture plate wells […] were washed with warm HBSS three times. […] Then a 30-µL sample was taken and mixed with 200 µL of scintillation fluid and scintillation counted (1450 Microbeta, Perkin-Elmer). […]

[5] = substrate: CC(=O)N[C@@H](CC(C)C)C(=O)O; experiment: cells, lysate or membranes; details: Michaelis-Menten fit

**Q.** For [2H]C([2H])([2H])C([2H])(C([2H])([2H])[2H])C([2H])([2H])C([2H])(NC(C)=O)C(=O)O (racemic) [N-acetyl-DL-[^2H10]leucine], which “disappearance: asymptote as % of the initial concentration, human liver S9” value [1] is on record?
**A.** Its value is roughly 50%.

**Q.** And the “disappearance: asymptote as % of the initial concentration, mouse liver S9” value [2]?
**A.** Its value is roughly 50%.

**Q.** For CC(C)C[C@H](N)C(=O)O [L-leucine], which Km (LAT1) is on record?
**A.** The Km was 200 µM.

**Q.** Which Ki (human MCT1 (SLC16A1) [3]; Cheng-Prusoff equation from IC50, competitive inhibition assumed, read-out: affinity (Ki) MCT1) does the source give for CC(=O)N[C@H](CC(C)C)C(=O)O [N-acetyl-D-leucine] here?
**A.** The Ki was 1.6 mM.

**Q.** What about the IC50 (human MCT1 (SLC16A1) [3]; probe 2-thiophene glyoxylate 500 µM, positive control phloretin 500 µM) of the same molecule?
**A.** The IC50 was 11 mM.

**Q.** What about the Km (human MCT1 (SLC16A1) [4]) of the same molecule?
**A.** The Km was 1000 µM.

**Q.** And the “Vmax MCT1 uptake” value (human MCT1 (SLC16A1) [4])?
**A.** The value was 80.

B1: Human OAT1 (SLC22A6) (Homo sapiens) (protein)
chain: MAFNDLLQQVGGVGRFQQIQVTLVVLPLLLMASHNTLQNFTAAIPTHHCRPPADANLSKNGGLEVWLPRDRQGQPESCLRFTSPQWGLPFLNGTEANGTGATEPCTDGWIYDNSTFPSTIVTEWDLVCSHRALRQLAQSLYMVGVLLGAMVFGYLADRLGRRKVLILNYLQTAVSGTCAAFAPNFPIYCAFRLLSGMALAGISLNCMTLNVEWMPIHTRACVGTLIGYVYSLGQFLLAGVAYAVPHWRHLQLLVSAPFFAFFIYSWFFIESARWHSSSGRLDLTLRALQRVARINGKREEGAKLSMEVLRASLQKELTMGKGQASAMELLRCPTLRHLFLCLSMLWFATSFAYYGLVMDLQGFGVSIYLIQVIFGAVDLPAKLVGFLVINSLGRRPAQMAALLLAGICILLNGVIPQDQSIVRTSLAVLGKGCLAASFNCIFLYTGELYPTMIRQTGMGMGSTMARVGSIVSPLVSMTAELYPSMPLFIYGAVPVAASAVTVLLPETLGQPLPDTVQDLESRWAPTQKEAGIYPRKGKQTRQQQEHQKYMVPLQASAQEKNGL
**Q.** Which Km ([5]; other: HEK-293 cells, pH 7.4) does the source give for B1 here?
**A.** Its Km is 11000 µM.

B2: Human OAT3 (SLC22A8) (Homo sapiens) (protein)
chain: MTFSEILDRVGSMGHFQFLHVAILGLPILNMANHNLLQIFTAATPVHHCRPPHNASTGPWVLPMGPNGKPERCLRFVHPPNASLPNDTQRAMEPCLDGWVYNSTKDSIVTEWDLVCNSNKLKEMAQSIFMAGILIGGLVLGDLSDRFGRRPILTCSYLLLAASGSGAAFSPTFPIYMVFRFLCGFGISGITLSTVILNVEWVPTRMRAIMSTALGYCYTFGQFILPGLAYAIPQWRWLQLTVSIPFFVFFLSSWWTPESIRWLVLSGKSSKALKILRRVAVFNGKKEEGERLSLEELKLNLQKEISLAKAKYTASDLFRIPMLRRMTFCLSLAWFATGFAYYSLAMGVEEFGVNLYILQIIFGGVDVPAKFITILSLSYLGRHTTQAAALLLAGGAILALTFVPLDLQTVRTVLAVFGKGCLSSSFSCLFLYTSELYPTVIRQTGMGVSNLWTRVGSMVSPLVKITGEVQPFIPNIIYGITALLGGSAALFLPETLNQPLPETIEDLENWSLRAKKPKQEPEVEKASQRIPLQPHGPGLGSS
**Q.** Which Km ([5]; other: HEK-293 cells, pH 7.4) does the source give for B2 here?
**A.** The Km was 7800 µM.

B3: human MCT1 (SLC16A1) (Homo sapiens) (protein)
chain: T1 sequence (P53985 1-500)
**Q.** Which Km ([5]; other: MDCK-II cells, 1 min, room temperature) does the source give for B3 here?
**A.** Its Km is 3000 µM.
